Like-named read-outs stand apart in the source and are kept apart here.
How the values were obtained:
[1] = tested on: ChREBP; test: Gel shift of purified ChREBP after incubation with PKA/PP2A in vitro; type: biochemical, rat; settings: okadaic acid 10 nM
Method: Gel shift assay. Gel mobility shift assays were performed as described by Liu et al. (Liu et al. (1993) J Biol Chem 268, 12787-12795). Double-stranded oligonucleotides (Table 1) were prepared by mixing equal amounts of the complementary single-stranded DNAs in 50 mM NaCl, heating to 70° C. for 15 min, and cooling to room temperature. The annealed oligonucleotides were labeled with ^32P in the presence of [γ^32P]-ATP (Amersham Pharmacia) and T4 polynucleotide kinase (New England Biolabs). Binding reactions were carried out in reaction mixture containing 20 mM Hepes (pH 7.9), 50 mM KCl, 5 mM DTT, 0.2 mM EDTA, 0.5 mM PMSF, 10% glycerol, 1 μg/μl of poly(dI-dC) (Amersham Pharmacia) and 1 μg/μl of nuclear extract. The reaction mixture was incubated at room temperature for 30 min and DNA-protein complexes were separated by electrophoresis in a 4.5% nondenaturing polyacrylamide gel.
Purified ChREBP was incubated with PKA and/or PP2A in vitro and measured by gel-shift analysis with the [^32P]-radiolabeled WT oligonucleotide. Purified ChREBP was incubated for 20 min with ATP (1 mM), PKA (0.1 U/μl), 0.2 U/μl PKI, 0.025 U/μl PP2A and the PP2A inhibitor, okadaic acid (10 nM).

[2] = biological target: T1, cytosolic Xu-5-P activated PPase (Rattus norvegicus, UniProt P63331); test: Protein phosphatase assay, cytosolic Xu-5-P activated PPase of liver; type: biochemical; settings: for inhibition of cytosolic PPase (MonoQ eluate): okadaic acid concentration not stated (below 10 nM)
T1 construct: from tissue; host or cells: rat liver cytosolic extract, DEAE-cellulose then Mono Q
T1 sequence (P63331 whole entry): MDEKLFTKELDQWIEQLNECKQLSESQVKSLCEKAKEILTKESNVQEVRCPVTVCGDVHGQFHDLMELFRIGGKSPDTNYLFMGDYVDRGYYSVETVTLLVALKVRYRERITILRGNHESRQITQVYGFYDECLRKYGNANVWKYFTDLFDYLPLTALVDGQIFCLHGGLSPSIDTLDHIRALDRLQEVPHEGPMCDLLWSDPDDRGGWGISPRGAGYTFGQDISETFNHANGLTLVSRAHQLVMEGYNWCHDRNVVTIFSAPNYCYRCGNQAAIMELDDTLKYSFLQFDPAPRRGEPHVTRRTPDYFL
T1 sequence (P56932 whole entry partner): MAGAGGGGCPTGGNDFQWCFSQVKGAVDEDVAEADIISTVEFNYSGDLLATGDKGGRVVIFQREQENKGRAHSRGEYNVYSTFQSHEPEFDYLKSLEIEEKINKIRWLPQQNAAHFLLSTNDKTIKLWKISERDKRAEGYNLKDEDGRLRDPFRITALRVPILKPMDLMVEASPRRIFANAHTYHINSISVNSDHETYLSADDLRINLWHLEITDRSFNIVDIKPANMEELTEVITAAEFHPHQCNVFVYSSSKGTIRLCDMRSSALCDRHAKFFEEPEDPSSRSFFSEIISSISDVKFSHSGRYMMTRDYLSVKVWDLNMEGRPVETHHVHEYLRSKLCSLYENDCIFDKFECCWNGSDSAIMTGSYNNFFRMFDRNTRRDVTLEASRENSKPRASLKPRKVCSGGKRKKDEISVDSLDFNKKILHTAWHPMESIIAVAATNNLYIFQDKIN
T1 sequence (Q5XI34 1-589 partner): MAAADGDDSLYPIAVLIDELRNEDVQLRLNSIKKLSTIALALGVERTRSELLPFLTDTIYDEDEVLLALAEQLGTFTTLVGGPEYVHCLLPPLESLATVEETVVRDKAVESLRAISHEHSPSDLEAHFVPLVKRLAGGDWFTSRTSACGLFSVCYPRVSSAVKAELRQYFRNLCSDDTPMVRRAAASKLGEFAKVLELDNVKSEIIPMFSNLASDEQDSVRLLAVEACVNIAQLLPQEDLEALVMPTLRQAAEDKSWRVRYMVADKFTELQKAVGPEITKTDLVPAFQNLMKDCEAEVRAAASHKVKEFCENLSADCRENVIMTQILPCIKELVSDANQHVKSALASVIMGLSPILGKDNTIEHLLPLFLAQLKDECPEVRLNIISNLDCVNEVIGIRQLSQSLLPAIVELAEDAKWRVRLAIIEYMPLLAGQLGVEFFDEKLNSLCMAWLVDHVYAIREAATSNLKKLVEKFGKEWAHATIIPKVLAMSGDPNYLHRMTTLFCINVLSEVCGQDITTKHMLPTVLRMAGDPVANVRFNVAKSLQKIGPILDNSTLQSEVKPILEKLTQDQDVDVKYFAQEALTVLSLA
Method: Liver was homogenized in a motor-driven Potter-Elvehjem homogenizer in 1 volume of extraction buffer containing 10 mM Hepes (pH 7.9), 10 mM KCl, 0.1 mM EDTA, 0.74 mM spermidine, 0.25 M sucrose, 50 mM imidazole, 1 mM dithiothreitol (DTT), 4 mM phenylmethanesulfonyl fluoride, and 1 mM benzamidine, and the extract was centrifuged at 10,000×g for 30 min.
(§1) Synthetic peptides corresponding to amino acids #187-201 ([…] “P1” peptide) (SEQ ID NO:64), #556-573 ([…], “P4” peptide) (SEQ ID NO:65), and #655-674 ([…]; “P3” peptide) (SEQ ID NO:66), of ChREBP were prepared by the Peptide Synthesis Service of University of Texas Southwestern Medical Center. These peptides were phosphorylated by 10 U of PKA for 6 h at 30° C. P4 peptide corresponding to 556-573 ([…]) (SEQ ID NO:65), was phosphorylated by 10 U of AMPK for 5 h at 30° C. The reaction mixtures were passed through on a Dowex AG1X8 column (0.5 cm×5 cm) which had been equilibrated with 30% acetic acid to remove residual [^32P]-ATP. The labeled peptides in the pass through fraction were lyophilized.
(§2) Protein phosphatase activity was determined by the method of Deana et al (Deana et al. (1990) Biochem, Biophys. Acta. 1051: 199-202). The reaction mixture contained in a final volume of 50 μ1,20 mM MOPS, pH 7.0, 1 mM DTT, 25 μg of BSA, and ^32P-labeled substrate for 15 min at 30° C. The reaction was terminated by the addition of 10% trichloroacetic acid. Phosphate released was converted to a phosphomolybdic complex followed by organic solvent (isobutyl alcohol:heptane, 1:1) extraction of the complex. The reaction mixture was mixed thoroughly and centrifuged. An aliquot of the top layer was then added to 5 ml scintillation fluid and counted. One unit of protein phosphatase is defined as that amount which catalyzes the release of 1.0 μmol of ^32P/min at 30° C.
(§3) These peptides were assayed with Mono Q purified cytosolic and nuclear PPases in the presence and absence of 50 μM Xu-5-P.

[3] = biological target: PP2A (Homo sapiens, UniProt P67775); settings: cited from earlier work
PP2A, sequence (P67775 whole entry): as the sequence (P63331 whole entry) above, with L5V counted along it

[4] = biological target: T2, nuclear Xu-5-P activated PPase (Rattus norvegicus, UniProt P63331); test: Protein phosphatase assay, nuclear Xu-5-P activated PPase of liver; type: biochemical; settings: read-out: inhibition of nuclear Xu-5-P-activated PPase (Mono Q eluate); for inhibition at 0.001 µM: 1 nM okadaic acid, P3 substrate
T2 construct: from tissue; host or cells: rat liver nuclear extract, DEAE-cellulose then Mono Q
T2 sequence (P63331 whole entry): as the sequence (P63331 whole entry) above
T2 sequence (P56932 whole entry partner): as the sequence (P56932 whole entry partner) above
T2 sequence (Q5XI34 1-589 partner): as the sequence (Q5XI34 1-589 partner) above
Method: Liver nuclear extracts were prepared as described in Example 1.
as §1, §2, §3

Q: What does the source list for `C=C1[C@@H](O)[C@@H]2O[C@]3(CC[C@H](/C=C/[C@@H](C)[C@@H]4CC(C)=C[C@@]5(O[C@H](C[C@@](C)(O)C(=O)O)CC[C@H]5O)O4)O3)CC[C@H]2O[C@@H]1[C@@H](O)C[C@H](C)[C@H]1O[C@@]2(CCCCO2)CC[C@H]1C` [okadaic acid]?
A: reactivation of phosphorylated ChREBP by PP2A [1]: blocked; inhibition of cytosolic PPase (MonoQ eluate) ([2]; absence of Xu-5-P): approximately 65%; inhibition of cytosolic Xu-5-P activated PPase (in words) ([2]; okadaic acid 10 nM (absence and presence of Xu-5-P), cantharidic acid 500 nM, deltamethrin 300 nM): completely; inhibition of cytosolic PPase (MonoQ eluate) ([2]; presence of Xu-5-P): ~50%; IC50 [3]: 1 nM; inhibition at 0.001 µM ([4]; absence of Xu-5-P): 63%; inhibition at 0.001 µM ([4]; presence of Xu-5-P): 70%; inhibition at 0.01 µM ([4]; 10 nM okadaic acid): > 95%
